Measurements from patent US8455514B2 (Aerie Pharmaceuticals, Inc., priority 2008, dated 2013).
Counter-ions that a name gives are not always drawn.

Assays:
eyes [1] = assay: Topical pharmaceutical composition administered to the eyes as drops (present-tense composition examples); assay type: in vivo, patient; conditions: composition of Example 90 (0.50 wt %)
Protocol: (§1) Topical pharmaceutical compositions for lowering intraocular pressure are prepared by conventional methods and formulated as follows: […]
A compound according to this invention is used as the 6- or 7-aminoisoquinoline derivative. When the composition is topically administered to the eyes once or more daily as 40 microliter drops, the above composition decreases intraocular pressure in a patient suffering from glaucoma.

eyes [2] = assay: as above; assay type: in vivo, patient; conditions: composition of Example 90 (0.50 wt %); for neuroprotective effect: topical drop 4 times per day; for effect on hyperemia, redness and ocular irritation: drop as needed
[3] = test system: eyes of a Dutch-belted rabbit; assay: Intraocular pressure after a topical drop to the eyes of Dutch-belted rabbits; assay type: in vivo; conditions: composition of Example 105 (0.30 wt %), 40 microliter drop topically once daily; for decrease of intraocular pressure: in some tests
Protocol: as §1
A pharmaceutical composition was prepared according to Example 105, where the 6-aminoisoquinoline derivative was (R)-2-(dimethylamino)-N-(1-hydroxyisoquinolin-6-yl)-2-(thiophen-3-yl)acetamide hydrochloride (E79). […] In some tests, the intraocular pressure was decreased by greater than 5 mm of mercury.

[4] = topical drop twice a day or as needed

## (R)—N-(isoquinolin-6-yl amino)-2-(methylamino)-2-o-fluorophenyl acetamide dihydrochloride [Example E17]
Eyes [1]; topical drop 4 times per day
  effect on intraocular pressure: substantially decreases intraocular pressure
Eyes [2]
  neuroprotective effect: serves as a neuroprotective agent

## O=C(Nc1ccc2cnccc2c1)[C@@H](c1ccccc1)N1CCCNC1 [Example E41, (R)—N-(isoquinolin-6-yl)-2-phenyl-2-(tetrahydropyrimidin-1(2H)-yl)acetamide]
Eyes [1]; [4]
  effect on intraocular pressure: substantially decreases intraocular pressure

## CN[C@@H](CC(C)C)C(=O)Nc1ccc2ccncc2c1 [Example E88, (S)—N-(isoquinolin-7-yl)-4-methyl-2-(methylamino)pentanamide dihydrochloride]
Eyes [1]; topical drop 4 times per day
  effect on intraocular pressure: substantially decreases intraocular pressure

## CN(C)[C@@H](C(=O)Nc1ccc2cnccc2c1)c1ccsc1.Cl [Example E80, (R)-2-(dimethylamino)-N-(isoquinolin-6-yl)-2-(thiophen-3-yl)acetamide hydrochloride]
[3]
  effect on intraocular pressure: substantially decreased intraocular pressure
  decrease of intraocular pressure: greater than 5 mm of mercury

## N[C@@H](C(=O)Nc1ccc2cnccc2c1)c1ccccc1 [Example E2, (R)-2-amino-N-(isoquinolin-6-yl)-2-phenylacetamide dihydrochloride]
Eyes [1]; topical drop 4 times per day
  effect on intraocular pressure: substantially decreases intraocular pressure
Eyes [2]
  neuroprotective effect: serves as a neuroprotective agent

## O=C(Nc1ccc2cnccc2c1)[C@@H](c1ccccc1)N1CCNCC1 [Example E40, (R)—N-(isoquinolin-6-yl)-2-phenyl-2-(piperazin-1-yl)acetamide]
Eyes [2]
  effect on hyperemia, redness and ocular irritation: substantially decreases hyperemia, redness and ocular irritation

## Cl.Cl.N[C@@H](C(=O)Nc1ccc2cnccc2c1)C1CCCCC1 [Example E9, (R)—N-(isoquinolin-6-ylamino)-2-amino-2-cyclohexyl acetamide dihydrochloride]
Eyes [2]; topical drop as needed
  effect on allergic symptoms: substantially decreases allergic symptoms

## (R)—N-(isoquinolin-6-yl-amino)-2-(ethylamino)-2-p-methylphenyl acetamide dihydrochloride [Example E18]
Eyes [1]; topical drop twice per day
  effect on intraocular pressure: substantially decreases intraocular pressure

## CCCN[C@H](C(=O)Nc1ccc2cnccc2c1)C1CCCCC1 [Example E25, (S)-2-cyclohexyl-N-(isoquinolin-6-yl)-2-(propylamino)acetamide]
Eyes [1]; [4]
  effect on intraocular pressure: substantially decreases intraocular pressure

## O=S(=O)(Nc1ccc2cnccc2c1)C(NC1CCCCC1)c1ccccc1 (stereo not shown) [Example E50]
Eyes [2]; topical drop twice per day
  effect on allergic symptoms: substantially decreases allergic symptoms
  effect on dry eye syndrome: relieves dry eye syndrome

## CC(C)C[C@@H](C(=O)Nc1ccc2ccncc2c1)N(C)C(=O)OC(C)(C)C [Example E87, (S)-tert-butyl 1-(isoquinolin-7-ylamino)-4-methyl-1-oxopentan-2-yl(methyl)carbamate]
Eyes [1]; topical drop 4 times per day
  effect on intraocular pressure: substantially decreases intraocular pressure

## CN(C)[C@@H](C(=O)Nc1ccc2cnccc2c1)c1ccccc1 [Example E3, (R)-2-(dimethylamino)-N-(isoquinolin-6-yl)-2-phenylacetamide dihydrochloride]
Eyes [1]; topical drop twice per day
  effect on intraocular pressure: substantially decreases intraocular pressure
Eyes [2]
  effect on hyperemia, redness and ocular irritation: substantially decreases hyperemia, redness and ocular irritation

## CN(C)[C@@H](C(=O)Nc1ccc2c(O)nccc2c1)c1ccsc1 [Example E79, (R)-2-(dimethylamino)-N-(1-hydroxyisoquinolin-6-yl)-2-(thiophen-3-yl)acetamide hydrochloride]
[3]
  effect on intraocular pressure: substantially decreased intraocular pressure
  decrease of intraocular pressure: greater than 5 mm of mercury
